This is an account of results in article PMC9343080, “Distribution- and Metabolism-Based Drug Discovery: A Potassium-Competitive Acid Blocker as a Proof of Concept” (Research, 2022).

Structures are written as SMILES. Like-named read-outs stand apart in the source and are kept apart here. Bounds are passed on as bounds.

Series [1] can be described thus: Metabolite identification and profiling in human liver microsomes. The following applies: SH-337 10 µM, 60 min incubation. In kind it is in vitro ADME. How it is done:
(§1) Liver microsomes (1 mg protein/mL) were suspended in phosphate buffer (50 mM, pH 7.4) containing MgCl2 (6 mM). […] The reactions were initiated at 37°C by the addition of 1 mM NADPH and terminated at 30 min or 60 min (30 min for rat; 60 min for human). The samples were precipitated with acetonitrile at 1 : 2 and further centrifuged; the supernatants were dried with a stream of N2 gas. The residues were reconstituted with 300 μL of 10% acetonitrile/H2O (0.1% TFA) and analyzed by LC-MS/MS. The assays were pursued under the conditions provided in Supplementary Tables S4, S6, S7, and S8.

The target in series [2] is T1, rabbit gastric H+, K+-ATPase (Oryctolagus cuniculus, UniProt P27112).
T1 construct: using rabbit gastric H^+, K^+-ATPase; from tissue; host or cells: rabbit stomach (gastric preparation; the method of preparation is not described)
T1 sequence (P27112 whole entry): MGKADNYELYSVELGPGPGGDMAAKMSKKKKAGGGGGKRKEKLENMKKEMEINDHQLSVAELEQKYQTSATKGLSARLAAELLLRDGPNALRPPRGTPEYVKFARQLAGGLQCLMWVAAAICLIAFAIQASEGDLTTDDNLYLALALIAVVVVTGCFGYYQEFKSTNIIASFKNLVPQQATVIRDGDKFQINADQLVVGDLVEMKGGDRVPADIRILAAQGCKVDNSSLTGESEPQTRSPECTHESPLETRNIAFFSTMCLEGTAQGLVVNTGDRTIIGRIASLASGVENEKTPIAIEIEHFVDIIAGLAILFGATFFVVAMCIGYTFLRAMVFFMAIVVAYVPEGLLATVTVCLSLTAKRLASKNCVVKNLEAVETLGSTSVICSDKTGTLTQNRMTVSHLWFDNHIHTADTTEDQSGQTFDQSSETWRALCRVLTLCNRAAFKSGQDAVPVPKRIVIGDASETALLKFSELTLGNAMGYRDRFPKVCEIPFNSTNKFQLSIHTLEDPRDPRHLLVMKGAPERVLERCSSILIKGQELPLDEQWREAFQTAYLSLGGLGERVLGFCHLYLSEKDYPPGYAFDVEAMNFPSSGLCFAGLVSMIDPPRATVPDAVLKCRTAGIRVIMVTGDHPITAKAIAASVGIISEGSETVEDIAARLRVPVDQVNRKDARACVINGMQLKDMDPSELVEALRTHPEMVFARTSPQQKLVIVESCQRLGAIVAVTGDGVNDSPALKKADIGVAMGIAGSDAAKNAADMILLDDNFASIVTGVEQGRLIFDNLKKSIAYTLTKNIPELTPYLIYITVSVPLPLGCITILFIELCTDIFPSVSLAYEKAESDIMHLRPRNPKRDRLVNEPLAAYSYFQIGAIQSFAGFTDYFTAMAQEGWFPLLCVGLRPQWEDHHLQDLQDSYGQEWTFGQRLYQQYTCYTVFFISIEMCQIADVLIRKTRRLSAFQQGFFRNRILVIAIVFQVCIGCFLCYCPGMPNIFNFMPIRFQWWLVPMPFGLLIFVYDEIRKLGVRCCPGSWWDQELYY
T1 sequence (P18597 whole entry partner): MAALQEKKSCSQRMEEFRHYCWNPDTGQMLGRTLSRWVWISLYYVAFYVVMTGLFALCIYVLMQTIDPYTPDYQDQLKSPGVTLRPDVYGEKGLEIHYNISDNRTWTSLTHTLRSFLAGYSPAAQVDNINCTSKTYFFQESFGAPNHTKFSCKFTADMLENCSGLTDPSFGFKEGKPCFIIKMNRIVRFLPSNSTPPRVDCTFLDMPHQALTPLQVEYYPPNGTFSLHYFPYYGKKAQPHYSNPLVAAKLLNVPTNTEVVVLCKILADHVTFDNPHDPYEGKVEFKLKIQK
The series can be described thus: In vitro enzymatic activity assay (inorganic phosphate from ATP hydrolysis). In kind it is biochemical. How it is done: The in vitro enzymatic activity was calculated by measuring the inorganic phosphate produced by the hydrolysis of ATP using rabbit gastric H^+, K^+-ATPase. 0.25 μg enzyme was preincubated at 37°C for 30 min in Tris-HCl buffer (2.0 mL, 50 mM, pH 6.5) containing 5 mM MgCl2, 10 μM valinomycin, 0 or 20 mM KCl, and different concentrations of SH-337 and vonoprazan. The reaction was initiated by adding 5 μL of 5 mM ATP 2Na, and the preparation was incubated for 30 min at 37°C and halted by the addition of 100 μL of malachite green reagent (0.12% malachite green, 7.5% ammonium molybdate, and 11% tween 20 were mixed in a volume ratio of 100 : 25 : 2). H^+, K^+-ATPase activity was calculated after subtracting the enzyme activity in the absence of KCl.

Series [3] addresses Na+, K+-ATPase. Briefly: In vitro Na+, K+-ATPase activity. It counts as biochemical.
The subject of series [4] is histamine-stimulated gastric acid secretion. Briefly: In vivo inhibition of histamine-stimulated acid secretion in anesthetized rats. The arrangement: species or system rat. The settings on record: for Total acid output, histamine-stimulated model / Inhibition (%), histamine-stimulated model: rats. How it is done:
(§2) 60 SPF SD rats weighing 180-220 g were randomly divided into […]: sham, model, SH-337 (2 mg/kg and 4 mg/kg), vonoprazan (2 mg/kg), males and females are equally divided. Fasting for 24 hours, model and sham groups were treated with deionized water. Drugs and vehicle were given through intragastric administration to rats before anesthesia. 1 h after administration, pylorus was ligated. 5 min later, histamine 2HCl (30 mg/10 mL/kg) was injected subcutaneously. At 3 h after histamine administration, the rats were killed by CO2 asphyxiation. The gastric contents were collected in a 10 mL centrifuge tube after removing their stomachs. Centrifuge at 3000 g for 10 min, and then, determine the total acid output during a 3 h period by 0.1 M NaOH [52, 53]. %Inhibition = (average of modelacid–drugacid)/average of modelacid × 100%.

Series [5] concerns 2-DG-stimulated gastric acid secretion. The series can be described thus: In vivo inhibition of 2DG-stimulated acid secretion in anesthetized rats. The arrangement: species or system rat. The procedure:
as §2
The 2DG-stimulated acid secretion in anesthetized rats was measured as described as for histamine-stimulated acid secretion, with the exception that 5 min after pylorus ligation, 2-DG (200 mg/10 mL/kg) was injected subcutaneously.

The nature of series [6]: pKa measurement (pH-metric method). In kind it is physicochemical. The procedure: Procedure for pKa and log D7.4 measurements. The pKa was determined using pH-metric Method from DMSO Stock Solution. Procedure for Log D determinations: 15 µL of stock solutions of test compounds and control compound was placed in order into their proper 96-well rack. 500 µL of PBS saturated 1-octanol was added into each vial of the cap-less Log D plate followed by the addition of 500 µL of 1-octanol saturated PBS (pH 7.4). One stir stick was added to each vial and a molded PTFE/Silicone plug was used to seal each vial. Then the Log D plate was transferred to the Eppendorf Thermomixer Comfort plate shaker and shaken at 25°C at 1,100 RPM for 1 hour. After completion of 1 hour, plugs were removed and the stir sticks were removed using a big magnet. The samples were then centrifuged at 25°C at 20,000 g for 20 minutes to separate the phases, and pipette and syringe were used to remove the upper (1-octanol) and lower (buffer) phases to the empty tubes, respectively. Aliquots of 5 µL were taken from upper phases followed by addition of 495 µL of a mixture of H2O and acetonitrile (1:1 in v/v). Vortex for 1 minute, and then aliquots of 50 µL were taken from the diluent followed by addition of 450 µL of a mixture of H2O and acetonitrile (1:1 in v/v). And aliquots of 50 µL were taken from lower phases followed by addition of 450 µL of a mixture of H2O and acetonitrile (1:1 in v/v). 200 μL of diluent was transferred to a new 96-well plate for LC-MS/MS analysis. The dilution factor was changed according to the Log D value and the LC-MS signal response. The concentrations of test compound and control compound in 1-octanol/buffer solution were evaluated by LC-MS/MS. The Log D values of the test compounds and control compound were calculated as follows: […]

A short description of series [7]: Two-week repeat-dose toxicity test. In kind it is in vivo, SD rats. The procedure:
(§3) For acute toxicity test: 12 SPF SD rats were randomly divided into three groups and received a single dose of SH-337 (1000 mg/kg, i.g.), and the animal tolerance was recorded within 2 hours. For two-week repeat-dose toxicity test: 20 SPF SD rats were randomly divided into two groups and received SH-337 (100, 200 mg/kg, i.g.) once daily for 14 days. SH-337 was dissolved in 0.5% CMC-Na. The body weight of the rats was recorded every 7 days. During the experiment, clinical parameters included apparent changes in the mental state, skin or fur, behavior, genitals, mucous membranes, respiration, stool consistency, glandular organ secretions, mortality, or other toxic results that were recorded. In addition, animal bodyweight and food intake were assessed once weekly over the study period. At the end of the experiment, the rats were sacrificed, and the serum hematological parameters and serum biochemistry parameters were recorded.

Series [8] can be described thus: Metabolite identification and profiling in rat liver microsomes. In kind it is in vitro ADME. The settings on record: SH-337 10 µM, 30 min incubation. How it is done: as §1
A general note: Liver microsomes are a subcellular fraction often used to study metabolism.

A short description of series [9]: Rat microsomal stability. It counts as in vitro ADME. The procedure: The in vitro metabolic stabilities of selected compounds were performed using human and rat liver microsomes in triplicate as described previously.
Series [10] is described as follows: Acute (single-dose) toxicity test. The following applies: SD rats, single dose of 1000 mg/kg, i.g. It counts as in vivo. The procedure:
as §3

Regarding `CNCc1cc(-c2ccc(OCC3CC3)cc2F)n(S(=O)(=O)c2cccnc2)c1.Cl.Cl` [SH-337, 1-(5-(4-(cyclopropylmethoxy)-2-fluorophenyl)-1-(pyridin-3-ylsulfonyl)-1H-pyrrol-3-yl)-N-methylmethanamine dihydrochloride], the “Relative peak area, HLMs” value in series [1] is 68.9%. Besides, the IC50 (as a rule, the concentration that inhibits the measured activity by half) turned out to be 33.8 nM in [2] and 31.3 µM in series [3]. In addition, the “fold greater enzyme inhibitory activity than vonoprazan” value in [2] (H+, K+-ATPase IC50, SH-337 vs. vonoprazan) was 2.0 fold. The compound also showed a Fold selectivity in series [3] (Na+, K+-ATPase over H+, K+-ATPase) of 925.6 fold. Moreover, in series [4] (histamine-induced acid secretion in rats, 2 mg/kg, i.g. (Table 2)), the “In vivo efficacy (% inhibition)” value is 83%. Besides, the “Total acid output, histamine-stimulated model” value in series [4] (i.g. 2 mg/kg) is given as 0.31 ± 0.39^∗∗ 10^−4 mol; in series [4] (i.g. 4 mg/kg), 0.14 ± 0.48^∗∗ 10^−4 mol. In addition, the figures for the “Inhibition (%), histamine-stimulated model” value in series [4] (i.g. 2 mg/kg (Table 6)) and in [4] (i.g. 4 mg/kg) were 80% and 93%, respectively. Further, the “Inhibition (%), 2-DG-stimulated model” value in series [5] (i.g. 2 mg/kg) stood at 78%; in series [5] (i.g. 4 mg/kg), 91%. Besides, the “Total acid output, 2-DG-stimulated model” value in series [5] (i.g. 2 mg/kg) is 0.65 ± 0.31^∗∗ 10^−4 mol; in series [5] (i.g. 4 mg/kg), 0.29 ± 0.29^∗∗ 10^−4 mol. For the same compound, the pKa (commonly the negative logarithm of the acid dissociation constant) in series [6] was 9.03; in [6] (read-out: pKa) it was 9. In series [7] (100 mg/kg vs. 30 mg/kg), the “NOAEL, fold higher than vonoprazan” value was determined as 3.3 fold. Further, in series [7] (SD, rat, in vivo, po, no observed adverse effect level (NOAEL)), the NOAEL – broadly, the highest tested level that showed no adverse finding – at 14 days is at least 100 mg/kg. Further, the repeated-dose toxicity findings result in [7] (rats, daily oral 100 mg/kg for 2 weeks) was “no evidence of SH-337 toxicity was observed”. For the same compound, the “Relative peak area, RLMs” value in series [8] was 45.7%. Besides, the “fold reduction of t1/2 vs. vonoprazan” value in series [9] (rat microsomes) is listed as 17.6 fold. Also, the half-life in [9] (rat, rat liver microsomes, read-out: Metabolic stability (t1/2) rat) worked out at 3.1 min. Besides, in series [10], the animal death entry is “no animal death was observed”. The “single-dose toxicity (tolerance)” value in series [10] was “well tolerated”.
